Data as given in publication PMC12948427 (The Journal of Clinical Investigation, 2025).
Several values for one entry are separate records, joined by “and”; a condition that tells them apart may be missing. Equal values may be shown once. Read-outs that look alike come from different tables or passages of the source. Ends that are not written are not given here.

Legend:
in vitro [1] = conditions: human, Calu-3 cells, cell viability, Figure S7G
in vitro [2] = conditions: Vero E6 cells, cell viability, Figure S7F
[3] = target: hHGS 1-390-6 × HIS protein (Homo sapiens, UniProt O14964); assay: SPR binding of immobilized M peptides to HGS; conditions: without RTB; read-out: KD, binding affinity of peptide with HGS (SPR)
Sequence of hHGS 1-390-6 × HIS protein (O14964 1-390): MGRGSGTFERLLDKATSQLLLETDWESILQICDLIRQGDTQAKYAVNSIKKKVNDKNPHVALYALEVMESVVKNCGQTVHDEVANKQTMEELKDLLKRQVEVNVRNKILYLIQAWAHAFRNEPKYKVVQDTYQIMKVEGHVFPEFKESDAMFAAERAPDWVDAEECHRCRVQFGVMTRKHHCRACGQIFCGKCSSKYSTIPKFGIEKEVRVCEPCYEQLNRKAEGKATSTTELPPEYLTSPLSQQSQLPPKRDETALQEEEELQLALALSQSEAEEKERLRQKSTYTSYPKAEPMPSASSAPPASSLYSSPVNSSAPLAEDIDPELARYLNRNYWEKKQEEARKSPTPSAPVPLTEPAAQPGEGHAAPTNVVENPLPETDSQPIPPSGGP

in vitro [4] = conditions: mouse, 17Cl-1 cells, cell viability, Figure S7E

GRKKRRQRRRPPQESELVIGAVILR [M146]
cytotoxicity (CCK-8) (Calu-3 cells; Calu-3, up to 10^4 nM): no significant cytotoxicity | cell viability, Figure S7G (Calu-3 cells; peptide concentration 2000): 95.941 and 95.203 | cell viability, Figure S7G (Calu-3 cells; peptide concentration 10000): 97.048 and 96.679 | cell viability, Figure S7G (Calu-3 cells; peptide concentration 20000): 96.679 | cell viability, Figure S7G (Calu-3 cells; peptide concentration 40000): 96.31 and 87.4539 | cell viability, Figure S7G (Calu-3 cells; peptide concentration 80000): 94.0959 and 97.048 | cell viability, Figure S7G (Calu-3 cells; peptide concentration 120000): 77.1218 and 97.786 and 96.31 | cell viability, Figure S7G (Calu-3 cells; peptide concentration 160000): 66.0517 and 74.9077 | cell viability, Figure S7G (Calu-3 cells; peptide concentration 200000): 81.9188 and 68.2657 | cell viability, Figure S7G (Calu-3 cells; peptide concentration 400000): 25.2399 and 16.7897 | cell viability, Figure S7G (Calu-3 cells; peptide concentration 800000): 14.4649 | cell viability, Figure S7G (Calu-3 cells; peptide concentration 1200000): 11.5867 and 10.5535 | cell viability, Figure S7G (Calu-3 cells; peptide concentration 1600000): 13.7638 and 14.6125 | viability at 24 h (in vitro [1]; peptide concentration 2000): 83.8% | viability at 24 h (in vitro [1]; peptide concentration 10000): 95.2% | viability at 24 h (in vitro [1]; peptide concentration 20000): 94.8% | viability at 24 h (in vitro [1]; peptide concentration 40000): 93.7% | viability at 24 h (in vitro [1]; peptide concentration 80000): 92.6% | viability at 24 h (in vitro [1]; peptide concentration 160000): 85.6% | viability at 24 h (in vitro [1]; peptide concentration 200000): 83% | viability at 24 h (in vitro [1]; peptide concentration 400000): 24.4% | viability at 24 h (in vitro [1]; peptide concentration 800000): 13% | viability at 24 h (in vitro [1]; peptide concentration 1200000): 11% | viability at 24 h (in vitro [1]; peptide concentration 1600000): 11.7% | cytotoxicity (CCK-8) (Vero E6 cells; Vero E6, up to 10^4 nM): no significant cytotoxicity | cell viability, Figure S7F (Vero E6 cells; peptide concentration 2000): 100.769 and 98.8462 | cell viability, Figure S7F (Vero E6 cells; peptide concentration 10000): 100.769 and 99.2308 | cell viability, Figure S7F (Vero E6 cells; peptide concentration 20000): 100 and 96.5385 | cell viability, Figure S7F (Vero E6 cells; peptide concentration 40000): 96.9231 and 96.1538 | cell viability, Figure S7F (Vero E6 cells; peptide concentration 80000): 86.9231 | cell viability, Figure S7F (Vero E6 cells; peptide concentration 120000): 92.3077 | cell viability, Figure S7F (Vero E6 cells; peptide concentration 160000): 75.7692 and 76.9231 | cell viability, Figure S7F (Vero E6 cells; peptide concentration 200000): 78.4615 and 78.8462 | cell viability, Figure S7F (Vero E6 cells; peptide concentration 400000): 21.7308 and 21.1538 | cell viability, Figure S7F (Vero E6 cells; peptide concentration 800000): 13.7308 and 14.2308 | cell viability, Figure S7F (Vero E6 cells; peptide concentration 1200000): 13.4615 and 14.1154 | cell viability, Figure S7F (Vero E6 cells; peptide concentration 1600000): 13.0385 and 11.8077 | viability at 24 h (in vitro [2]; peptide concentration 2000): 98.5% | viability at 24 h (in vitro [2]; peptide concentration 10000): 97.7% | viability at 24 h (in vitro [2]; peptide concentration 20000): 94.2% | viability at 24 h (in vitro [2]; peptide concentration 40000): 93.1% | viability at 24 h (in vitro [2]; peptide concentration 80000): 91.9% | viability at 24 h (in vitro [2]; peptide concentration 120000): 88.8% | viability at 24 h (in vitro [2]; peptide concentration 160000): 80.8% | viability at 24 h (in vitro [2]; peptide concentration 200000): 70.8% | viability at 24 h (in vitro [2]; peptide concentration 400000): 20% | viability at 24 h (in vitro [2]; peptide concentration 800000): 12% | viability at 24 h (in vitro [2]; peptide concentration 1200000): 11.4% | viability at 24 h (in vitro [2]; peptide concentration 1600000): 14.5% | cytotoxicity (CCK-8) (17Cl-1 cells; 17Cl-1, up to 10^4 nM): no significant cytotoxicity | cell viability, Figure S7E (17Cl-1 cells; peptide concentration 1000): 99.2599 and 92.2943 | cell viability, Figure S7E (17Cl-1 cells; peptide concentration 4000): 104.049 and 106.226 | cell viability, Figure S7E (17Cl-1 cells; peptide concentration 8000): 108.838 | cell viability, Figure S7E (17Cl-1 cells; peptide concentration 10000): 97.5185 and 100.566 | cell viability, Figure S7E (17Cl-1 cells; peptide concentration 20000): 112.32 and 104.049 | cell viability, Figure S7E (17Cl-1 cells; peptide concentration 40000): 96.2125 and 97.0832 | cell viability, Figure S7E (17Cl-1 cells; peptide concentration 60000): 82.2812 and 103.613 and 98.3892 | cell viability, Figure S7E (17Cl-1 cells; peptide concentration 80000): 90.5529 | cell viability, Figure S7E (17Cl-1 cells; peptide concentration 100000): 97.0832 and 87.5054 | cell viability, Figure S7E (17Cl-1 cells; peptide concentration 200000): 89.6822 and 71.8328 | Kd [3]: 5.73 nM | viability at 24 h (in vitro [4]; peptide concentration 1000): 99.7% | viability at 24 h (in vitro [4]; peptide concentration 4000): 103% | viability at 24 h (in vitro [4]; peptide concentration 8000): 95.8% | viability at 24 h (in vitro [4]; peptide concentration 10000): 107% | viability at 24 h (in vitro [4]; peptide concentration 20000): 92.7% | viability at 24 h (in vitro [4]; peptide concentration 40000): 91% | viability at 24 h (in vitro [4]; peptide concentration 80000): 71.4% | viability at 24 h (in vitro [4]; peptide concentration 100000): 84.5% | viability at 24 h (in vitro [4]; peptide concentration 200000): 84%
